Values after ≈ are worked out from the molar mass of the structure shown.
Key:
Experiment in all cases: Antibacterial activity MIC, two-fold agar dilution
Type in all cases: cell-based
[1] = system: Acinetobacter calcoaceticus ATCC 15473; details: ATCC15473; Acinetobacter calcoaceticus ATCC 15473; Muller-Hinton agar, 37° C., 20 hours; read-out: Antibacterial Activity MIC
In short: (§1)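 Read-out is the MIC on agar plates after 20 hours at 37° C. Test compounds were dispersed as two-fold serial dilutions in Muller-Hinton medium, then inoculated with 2 μl of standard strain containing 10^7 CFU per ml.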

[2] = system: Bacillus cereus ATCC 11778; details: ATCC11778; Bacillus cereus ATCC 11778; Muller-Hinton agar, 37° C., 20 hours; read-out: Antibacterial Activity MIC
In short: as §1

[3] = system: Bacillus megaterium ATCC 9885; details: Priestia megaterium, ATCC9885; Bacillus megaterium ATCC 9885; Muller-Hinton agar, 37° C., 20 hours; read-out: Antibacterial Activity MIC
In short: as §1

[4] = system: Citrobacter freundii ATCC 8090; details: ATCC8090; Citrobacter freundii ATCC 8090; Muller-Hinton agar, 37° C., 20 hours; read-out: Antibacterial Activity MIC
In short: as §1

[5] = system: Enterobacter aerogenes ATCC 29751; details: Klebsiella aerogenes, ATCC29751; Enterobacter aerogenes ATCC 29751; Muller-Hinton agar, 37° C., 20 hours; read-out: Antibacterial Activity MIC
In short: as §1

[6] = system: Enterobacter cloacae ATCC 27508; details: ATCC27508; Enterobacter cloacae ATCC 27508; Muller-Hinton agar, 37° C., 20 hours; read-out: Antibacterial Activity MIC
In short: as §1

[7] = system: Escherichia coli ATCC 10536; details: ATCC10536, Muller-Hinton agar, 37° C., 20 hours
In short: as §1

[8] = system: Escherichia coli ATCC 25922; details: ATCC25922, Muller-Hinton agar, 37° C., 20 hours
In short: as §1

[9] = system: Klebsiella pneumoniae ATCC 10031; details: ATCC10031; Klebsiella pneumoniae ATCC 10031; Muller-Hinton agar, 37° C., 20 hours; read-out: Antibacterial Activity MIC
In short: as §1

[10] = system: Micrococcus luteus ATCC 9341; details: ATCC9341; Micrococcus luteus ATCC 9341; Muller-Hinton agar, 37° C., 20 hours; read-out: Antibacterial Activity MIC
In short: as §1

[11] = system: Morganella morganii ATCC 8076h; details: ATCC8076H, Muller-Hinton agar, 37° C., 20 hours
In short: as §1

[12] = system: Proteus mirabilis ATCC 25933; details: ATCC25933; Proteus mirabilis ATCC 25933; Muller-Hinton agar, 37° C., 20 hours; read-out: Antibacterial Activity MIC
In short: as §1

[13] = system: Proteus vulgaris ATCC 6059; details: ATCC6059; Proteus vulgaris ATCC 6059; Muller-Hinton agar, 37° C., 20 hours; read-out: Antibacterial Activity MIC
In short: as §1

[14] = system: Providencia rettgeri ATCC 9250; details: ATCC9250, Muller-Hinton agar, 37° C., 20 hours
In short: as §1

[15] = system: Pseudomonas aeruginosa ATCC 10145; details: ATCC10145; Pseudomonas aeruginosa ATCC 10145; Muller-Hinton agar, 37° C., 20 hours; read-out: Antibacterial Activity MIC
In short: as §1

[16] = system: Pseudomonas aeruginosa ATCC 25619; details: ATCC25619; Pseudomonas aeruginosa ATCC 25619; Muller-Hinton agar, 37° C., 20 hours; read-out: Antibacterial Activity MIC
In short: as §1

[17] = system: Pseudomonas aeruginosa ATCC 27853; details: ATCC27853; Pseudomonas aeruginosa ATCC 27853; Muller-Hinton agar, 37° C., 20 hours; read-out: Antibacterial Activity MIC
In short: as §1

[18] = system: Salmonella typhimurium ATCC 14028; details: Salmonella enterica; Salmonella typhimurium ATCC 14028; Muller-Hinton agar, 37° C., 20 hours; read-out: Antibacterial Activity MIC
In short: as §1

[19] = system: Serratia marcescens ATCC 27117; details: ATCC27117; Serratia marcescens ATCC 27117; Muller-Hinton agar, 37° C., 20 hours; read-out: Antibacterial Activity MIC
In short: as §1

[20] = system: Shigella flexneri ATCC 11836; details: ATCC11836, Muller-Hinton agar, 37° C., 20 hours
In short: as §1

[21] = system: Shigella sonnei ATCC 11060; details: ATCC11060, Muller-Hinton agar, 37° C., 20 hours
In short: as §1

[22] = system: Staphylococcus aureus ATCC 10537; details: ATCC10537; Staphylococcus aureus ATCC 10537; Muller-Hinton agar, 37° C., 20 hours; read-out: Antibacterial Activity MIC
In short: as §1

[23] = system: Staphylococcus aureus ATCC 6538p; details: ATCC6538P; Staphylococcus aureus ATCC 6538p; Muller-Hinton agar, 37° C., 20 hours; read-out: Antibacterial Activity MIC
In short: as §1

[24] = system: Staphylococcus epidermidis ATCC 12228; details: ATCC12228; Staphylococcus epidermidis ATCC 12228; Muller-Hinton agar, 37° C., 20 hours; read-out: Antibacterial Activity MIC
In short: as §1

[25] = system: Streptococcus faecalis ATCC 29212; details: Enterococcus faecalis, ATCC29212; Streptococcus faecalis ATCC 29212; Muller-Hinton agar, 37° C., 20 hours; read-out: Antibacterial Activity MIC
In short: as §1

SMILES | MIC [1] [µg/mL] | MIC [2] [µg/mL] | MIC [3] [µg/mL] | MIC [4] [µg/mL] | MIC [5] [µg/mL] | MIC [6] [µg/mL] | MIC [7] [µg/mL] | MIC [8] [µg/mL] | MIC [9] [µg/mL] | MIC [10] [µg/mL] | MIC [11] [ng/mL] | MIC [12] [µg/mL] | MIC [13] [µg/mL] | MIC [14] [ng/mL] | MIC [15] [µg/mL] | MIC [16] [µg/mL] | MIC [17] [µg/mL] | MIC [18] [µg/mL] | MIC [19] [µg/mL] | MIC [20] [µg/mL] | further results
CC[n+]1c(N)cc(SCC2=C(C(=O)[O-])N3C(=O)[C@@H](NC(=O)/C(=N\OCC(=O)O)c4csc(N)n4)[C@H]3SC2)nc1N [Compound I-18, (6R,7R)-7-[(Z)-2-(2-aminothiazol-4-yl)-2-(carboxymethoxyimino)acetamido]-3-(2,6-diamino-1-ethyl-pryrimidinium-4-yl)thiomethyl-3-cephem-4-carboxylate] | 16 (≈ 26.2 µM) | > 128 | 0.5 (≈ 0.82 µM) | 0.063 (≈ 0.103 µM) | 2 (≈ 3.28 µM) | 0.016 (≈ 0.0262 µM) | 0.063 (≈ 0.103 µM) | 0.063 (≈ 0.103 µM) | 0.031 (≈ 0.0508 µM) | 0.5 (≈ 0.82 µM) | ≤ 8 | 0.063 (≈ 0.103 µM) | 0.063 (≈ 0.103 µM) | ≤ 8 | 4 (≈ 6.56 µM) | 1 (≈ 1.64 µM) | 2 (≈ 3.28 µM) | 0.25 (≈ 0.41 µM) | 0.063 (≈ 0.103 µM) | 0.016 (≈ 0.0262 µM) | MIC [21]: 0.063 µg/mL (≈ 0.103 µM); MIC [22]: 4 µg/mL (≈ 6.56 µM); MIC [23]: 4 µg/mL (≈ 6.56 µM); MIC [24]: 2 µg/mL (≈ 3.28 µM); MIC [25]: > 128 µg/mL
CC(O/N=C(\C(=O)N[C@@H]1C(=O)N2C(C(=O)[O-])=C(CSc3cc(N)[n+](C)c(N)n3)CS[C@H]12)c1csc(N)n1)C(=O)O (stereo partly drawn) [Compound I-19, (6R,7R)-7-[(Z)-2-(2-aminothiazol-4-yl)-2-(R,S-carboxyeth-1-oxyimino)acetamido]-3-(2,6-diamino-1-methylpyrimidinium-4-yl)thiomethyl-3-cephem-4-carboxylate] | 8 (≈ 13.1 µM) | 128 (≈ 210 µM) | 0.25 (≈ 0.41 µM) | 0.13 (≈ 0.213 µM) | 1 (≈ 1.64 µM) | 0.031 (≈ 0.0508 µM) | 0.13 (≈ 0.213 µM) | 0.13 (≈ 0.213 µM) | 0.063 (≈ 0.103 µM) | 0.5 (≈ 0.82 µM) | ≤ 8 | 0.13 (≈ 0.213 µM) | 0.25 (≈ 0.41 µM) | ≤ 8 | 4 (≈ 6.56 µM) | 1 (≈ 1.64 µM) | 2 (≈ 3.28 µM) | 0.25 (≈ 0.41 µM) | 0.25 (≈ 0.41 µM) | 0.016 (≈ 0.0262 µM) | MIC [21]: 0.25 µg/mL (≈ 0.41 µM); MIC [22]: 4 µg/mL (≈ 6.56 µM); MIC [23]: 4 µg/mL (≈ 6.56 µM); MIC [24]: 4 µg/mL (≈ 6.56 µM); MIC [25]: 128 µg/mL (≈ 210 µM)
CC[n+]1c(N)cc(SCC2=C(C(=O)[O-])N3C(=O)[C@@H](NC(=O)/C(=N\OC(C)C(=O)O)c4csc(N)n4)[C@H]3SC2)nc1N (stereo partly drawn) [Compound I-20, (6R,7R)-7-[(Z)-2-(2-aminothiazol-4-yl)-2-(R,S-carboxyeth-1-oxyimino)acetamido]-3-(2,6-diamino-1-ethylprimidinium-4-yl)thiomethyl-3cephem-4-carboxylate] | 8 (≈ 12.8 µM) | 128 (≈ 205 µM) | 0.25 (≈ 0.401 µM) | 0.13 (≈ 0.208 µM) | 1 (≈ 1.6 µM) | 0.016 (≈ 0.0257 µM) | 0.13 (≈ 0.208 µM) | 0.13 (≈ 0.208 µM) | 0.063 (≈ 0.101 µM) | 0.25 (≈ 0.401 µM) | ≤ 8 | 0.063 (≈ 0.101 µM) | 0.25 (≈ 0.401 µM) | ≤ 8 | 4 (≈ 6.41 µM) | 1 (≈ 1.6 µM) | 2 (≈ 3.21 µM) | 0.5 (≈ 0.802 µM) | 0.25 (≈ 0.401 µM) | 0.016 (≈ 0.0257 µM) | MIC [21]: 0.5 µg/mL (≈ 0.802 µM); MIC [22]: 4 µg/mL (≈ 6.41 µM); MIC [23]: 2 µg/mL (≈ 3.21 µM); MIC [24]: 4 µg/mL (≈ 6.41 µM); MIC [25]: 128 µg/mL (≈ 205 µM)
